In patent publication US8372867B2, “Insecticidal aryl isoxazoline derivatives” (Bayer CropScience AG, priority 2007, dated 2013):

Tests used:
Spodoptera litura = experiment: Test against larva of Spodoptera litura (leaf dip); assay type: in vivo; settings: 100 ppm of the active compound; third instar larvae; after 7 days
Experimental: Solvent: Dimethylformamide 3 parts by weight
Emulsifier: Polyoxyethylene alkyl phenyl ether 1 part by weight
(§1) To prepare an appropriate formulation of an active compound, 1 part by weight of the active compound was mixed with the aforementioned amount of the solvent containing the aforementioned amount of the emulsifier, and the mixture was diluted to a prescribed concentration with water.
Leaves of sweet potate were soaked in the test agent diluted to a prescribed concentration with water, air-dried, and placed in a dish of 9 cm in diameter. Into this dish, 10 larvae of Spodoptera litura at the third instar were released and kept in a room at constant temperature of 25° C. After 2 and 4 days, more leaves of sweet potato were added, and the number of dead larvae after 7 days was counted to calculate the death rate. In this test, the test results are presented as an average of the results of two dishes per section.

Aulacophora femoralis = experiment: Test against Aulacophora femoralis (leaf dip); assay type: in vivo; settings: 100 ppm of the active compound; second instar larvae; after 7 days
Experimental: as §1
Leaves of cucumbers were soaked in a diluted aqueous solution of the prescribed concentration of an active compound prepared in the same manner as in the aforementioned tests, air-dried, and placed a plastic cup containing sterilized black soil. Into this cup, 5 larvae of Aulacophora femoralis at second instar were then released. After 7 days, the number of dead larvae was counted to calculate the death rate.

[1] = tested on: organic phosphorus agent- and carbamate agent-resistant Myzus persicae; experiment: Test against organic phosphorus agent- and carbamate agent-resistant Myzus persicae (spray); assay type: in vivo; settings: 500 ppm of the active compound; adults on eggplant; 7 days at 28° C.
Experimental: as §1
About 30 to 50 adults of organic phosphorus agent- and carbamate agent-resistant Myzus persicae per seedling were inoculated to leaves of eggplants at two leaf stage cultured in a pot of 6 cm in diameter. One day after the inoculation, an ample amount of the diluted aqueous solution of the prescribed concentration of an active compound prepared in the same manner as in the aforementioned tests was sprayed with a spray gun. After the spraying, the pot was kept in a greenhouse at 28° C. for 7 days, the death rate was calculated. The test was duplicated.

Lucilia cuprina larvae = experiment: whole plant or invertebrate; settings: in Equus caballus, read-out: activity (mortality in %)
Musca domestica [2] = experiment: whole plant or invertebrate; settings: read-out: activity (mortality in %)
Amblyomma hebraeum = experiment: Test against Amblyomma hebraeum (nymph dip); assay type: in vivo; settings: 1008 h, read-out: activity (mortality in %)
Experimental: Nymphs of the tick Amblyomma hebraeum are placed in perforated plastic beakers and immersed in aqueous compound solution for one minute. Ticks are transferred to a filter paper in a Petri dish and incubated in a climate chamber for 42 days.

Boophilus microplus [3] = experiment: whole plant or invertebrate; settings: Rhipicephalus microplus, 168 h, read-out: activity (mortality in %)
[4] = tested on: Ctenocephalides felis felis; experiment: Efficacy against fleas Ctenocephalides felis felis on cats; assay type: in vivo; settings: 0.1 ml/kg (15 mg/kg) applied as Spot-on, once on day 0, weekly reinfestation
Experimental: On study days −4 and −1 prior to treatment cats are infested with about 100 adult not fed fleas (Ctenocephalides felis felis). The fleas are released on the neck on the fur of the cats
On study day 0 the flea infestation rate is checked by counting the fleas on the animals. The number of live fleas is recorded.
After flea counting the cats are treated with the investigational product. Cats of the control group are left untreated and serve as negative control group. The investigational veterinary product is applied dermally as one spot at a dose volume of 0.1 to 0.2 ml/kg body weight. Treatment is performed only once on study day 0. Only healthy cats are treated and included in the study.
Flea counts are performed on study days 1 and/or 2 where the cats are combed and the number of live fleas recorded. The results are documented.
In weekly intervals the cats are reinfested with about 100 adult not fed fleas per cat. One and/or two days after reinfestation the cats are combed and the live fleas counted for each animal. The results are recorded.
Efficacy should be given over a three to four week period
For the calculation of the effectiveness the modified Abbott formula is used: […]

Ixodes ricinus = experiment: Efficacy against ticks (Ixodes ricinus) on cats; assay type: in vivo; settings: 0.1 ml/kg (15 mg/kg) applied as Spot on, once on day 0, weekly reinfestation
Experimental: On study days −4 and/or −1 cats are sedated with a combination of the active ingredients ketaminhydrochloride and acepromazinmaleat. After all cats are sedated (approximately after 10-15 minutes) the cats are placed in single cages and 50 Ixodes ricinus ticks (25 female and 25 male) are released on the fur on the back of the cat. The cats are sleeping for about 1 h to 1.5 h and restrained from grooming and removing the ticks.
On study days −3 or 0 tick infestation rate is checked, while the cats are placed on an examination table. The area around the head, ears, eyes, neck and lateral and ventral part of the body and between the toes is checked intensively. The number of live attached engorged ticks is counted and recorded. Dead ticks are removed.
After tick counting on study day 0 treatment is performed. Cats of the control group are left untreated and serve as negative control group. The investigational veterinary product is applied as one single spot on the skin at the base of the skull. Treatment is performed only once on day 0. […]
On study day 1 and/or 2 tick counts are performed and the number of life or dead attached ticks counted and recorded. […]
In weekly intervals each cat is infested with 50 Ixodes ricinus ticks (25 female and 25 male) and tick counts are performed 1 and/or 2 days after reinfestation. Life and dead attached ticks are counted and recorded. […]

Ctenocephalides felis = experiment: Test against Ctenocephalides felis (Example 5-1, blood feeding, dimethylformamide); assay type: in vivo; settings: 100 ppm of the active ingredient; adults fed on treated blood
Experimental: In order to prepare an appropriate formulation of an active compound, 10 mg of the active compound is dissolved in 0.5 mL of the aforementioned solvent, and the mixture is diluted to a prescribed concentration with blood from domestic animals.
About 10 to 15 adults of Ctenocephalides felis were kept in a flea-specific container. Another container containing the blood solution containing the compound prepared as described above was covered with a laboratory film [[…]™]. The blood containing container was turned upside down and placed on the flea-specific container. This system enables Ctenocephalides felis to suck the blood in the container. The blood solution was kept at 37° C. and the flea-specific container was kept at room temperature. After a certain period of time, the death rate of Ctenocephalides felis was calculated. For this test, the death rate of 100% means death of all Ctenocephalides felis, while the death rate of 0% means that all the fleas survived.

Boophilus microplus [5] = experiment: Test against Boophilus microplus (injection, Example 6-1, dimethylformamide); assay type: in vivo; settings: dose of 20 ug/animal; injection into abdomen of fully fed adult females
Experimental: (§2) In order to prepare an appropriate formulation of an active compound, 10 mg of the active compound was dissolved in 0.5 mL of the aforementioned solvent, and the mixture was diluted to a prescribed concentration with water.
A solution of a compound formulated as above was injected into 5 fully fed adult female Boophilus microplus in their abdomen. These Boophilus microplus were transferred to a replica dish and kept in an incubating cabinet for a certain period of time.
After a certain period of time, the death rate of Boophilus microplus was calculated. In this test, the death rate of 100% means death of all Boophilus microplus, while the death rate of 0% means that all the mites survive.

Lucillia cuprina = experiment: Test against Lucillia cuprina (Example 7-1, dimethylformamide); assay type: in vivo; settings: 100 ppm of the active ingredient; larvae on minced horsemeat
Experimental: as §2
About 20 to 30 larvae of Lucillia cuprina were placed into a test tube containing 1 cm^3 of minced horsemeat and 0.5 mL of an aqueous solution of a compound prepared as above.
After a certain period of time, the death rate of Lucillia cuprina was calculated. For this test, the death rate of 100% means death of all Lucillia cuprina, while the death rate of 0% means that all the flies survived.

Musca domestica [6] = experiment: Test against Musca domestica (Example 8-1, dimethylformamide); assay type: in vivo; settings: 100 ppm of the active ingredient; adults, sugar/compound soaked sponge
Experimental: In order to prepare an appropriate formulation of an active compound, 10 mg of the active compound was dissolved in 0.5 mL of the above solvent, and the resultant mixture was diluted to a prescribed concentration with water.
As a preparatory stage, a mixture of sugar and an aqueous solution of a compound prepared as above was absorbed into a sponge of a given size, and the sponge was place into a test container. 10 adult insects of Musca domestica were placed into the container, and the container was covered with a perforated cover.
After a certain period of time, the death rate of Musca domestica is calculated. In this test, the death rate of 100% means death of all Musca domestica, while the death rate of 0% means that all the flies survived.

With `CC(=O)N(Cc1ccccn1)Cc1ccc(C2=NOC(c3cc(Cl)cc(Cl)c3)(C(F)(F)F)C2)cc1C#N` (centres unmarked) [1-61, N-{2-cyano-4-[5-(3,5-dichlorophenyl)-5-(trifluoromethyl)-4,5-dihydroisoxazol-3-yl]benzyl}-N-(pyridin-2-ylmethyl)acetamide] the death rate (Spodoptera litura) was 100%, the death rate (Aulacophora femoralis) was 100% and the death rate [1] was 100%. For the same compound, the mortality at 100 ppm (Lucilia cuprina larvae) was no less than 80% and the mortality at 100 ppm (Musca domestica [2]) was no less than 80%.
`CC(=S)NCc1ccc(C2=NOC(c3cc(Cl)cc(Cl)c3)(C(F)(F)F)C2)cc1Br` (centres unmarked) [1-44, N-{2-bromo-4-[5-(3,5-dichlorophenyl)-5-(trifluoromethyl)-4,5-dihydroisoxazol-3-yl]benzyl}ethanethioamide] gave a death rate (Spodoptera litura) of 100%, a death rate (Aulacophora femoralis) of 100% and a mortality at 100 ppm (Amblyomma hebraeum) of no less than 80%. For the same compound, the mortality at 100 ppm (Lucilia cuprina larvae) was no less than 80%, the mortality at 100 ppm (Musca domestica [2]) was no less than 80% and the mortality at 100 ppm (Boophilus microplus [3]) was no less than 80%.
For `CC(=O)NCc1ccc(C2=NOC(c3cc(Cl)c(Cl)c(Cl)c3)(C(F)(F)F)C2)cc1Br` (centres unmarked) [1-129], the “efficacy (modified Abbott formula)” value [4] was greater than 95% and the “efficacy (modified Abbott formula)” value (Ixodes ricinus) was greater than 90%.
For `CC(=O)N(Cc1ccccn1)Cc1ccc(C2=NOC(c3cc(Cl)cc(Cl)c3)(C(F)(F)F)C2)cc1C` (centres unmarked) [1-64], the death rate (Ctenocephalides felis) was “more than 80%”, the death rate (Boophilus microplus [5]) was “more than 80%” and the death rate (Lucillia cuprina) was “more than 80%”. The death rate (Musca domestica [6]) was “more than 80%”.
